# Structures can show the parent of a compound that is named as a salt. Where two headings read alike, the source gives them in different places.
# Columns and labels:
# [1] = system: LPS-induced increase in plasma nitrite/nitrate levels; test: Endotoxin (LPS)-treated rats, plasma nitrite/nitrate levels; format: in vivo, rat; settings: oral administration, plasma nitrite/nitrate 5 hours post-treatment
# Experimental: Plasma nitrite/nitrate levels can be determined 5 hours post-treatment.
# [2] = system: Human Cartilage explants, IL-1β-induced nitric oxide synthase (nitrite production); test: Human cartilage explant assay (nitrite production, IL-1β induced); format: cell-based; settings: inhibition of nitrite production, IL-1β stimulated explants
# Experimental: Bone pieces are rinsed twice with Dulbecco's Phosphate Buffered Saline (GibcoBRL) and once with Dulbecco's Modified Eagles Medium (GibcoBRL) and placed into a petri dish with phenol red free Minimum Essential Medium (MEM) (GibcoBRL). Cartilage was cut into small explants of approximately 15-45 mg in weight and one or two explants per well are placed into either 96 or 48 well culture plates with 200-500 μL of culture media per well. The culture media was either a custom modification of Minimum Essential Medium(Eagle) with Earle's salts (GibcoBRL) prepared without L-Arginine, without L-Glutamine and without phenol red or a custom modification of serumless Neuman and Tytell (GibcoBRL) medium prepared without L-arginine, without insulin, without ascorbic acid, without L-glutamine and without phenol red. Both are supplemented before use with 100 μM L-Arginine (Sigma), 2 mM L-glutamine, 1X HL-1 supplement (BioWhittaker), […] ascorbic acid (Sigma) and 150 pg/ml recombinant human IL-1β (RD Systems) to induce nitric oxide synthase. Compounds are then added in 10 μL aliquots and the explants incubated at 37° C. with 5% CO2 for 18-24 hours. The day old supernatant is then discarded and replaced with fresh culture media containing recombinant human IL-1β and compound and incubated for another 20-24 hours. […] All samples are done in quadruplicate. Unstimulated controls are cultured in media in the absence of recombinant human IL-1β. IC50 values (Table I)are determined from plotting the percent inhibition of nitrite production at six different concentrations of inhibitor.
# retinal ganglion cells = settings: rats with chronic moderately elevated IOP, cited from earlier work
# [3] = Rattus norvegicus, read-out: ED50
Compound,"ED50 [1, 3] [mg/kg]",IC50 ([2]; Homo sapiens) [nM],other results
"N=C1CCCC[C@H](CCCC[C@@H](N)C(=O)O)N1 [Example V, ([…]R,2S)-[…]-aminohexahydro-7-imino-1H-azepine-2-hexanoic acid, trihydrate hydrochloride]",< 3,< 10000,
"CC(=N)NC/C(F)=C\CC[C@H](N)C(=O)O [Example A, (2S,5E)-2-amino-6-fluoro-7-[(1-iminoethyl)amino]-5-heptenoic acid, dihydrochloride, monohydrate]",< 0.1,100,"ED50 ([1]; dihydrochloride, monohydrate): <0.1 mg/kg"
"CC(=N)NC/C=C\CC[C@](C)(N)C(=O)O.Cl.Cl [Example LL, (2S,5Z)-2-amino-2-methyl-7-[(1-iminoethyl)amino]-5-heptenoic acid, dihydrochloride]",0.3,800,
"N=C1CCCC[C@H](CCCC[C@H](N)C(=O)O)N1 [Example X, ([…]S,2S)-[…]-aminohexahydro-7-imino-1H-azepine-2-hexanoic acid, trihydrate hydrochloride]",,< 10000,
"CC(=N)NC/C(F)=C\CC[C@H](N)C(=O)Nc1nnn[nH]1 [Example H, (2S,5E)-2-amino-6-fluoro-7-[(1-iminoethyl)amino]-N-(1H-tetrazol-5-yl) 5-heptenamide, dihydrochloride]",< 0.3,,
"CC(=N)NC/C(F)=C\CC[C@](C)(N)C(=O)O.Cl.Cl [Example HH, (2S,5E)-2-amino-2-methyl-6-fluoro-7-[(1-iminoethyl)amino]-5-heptenoic acid, dihydrochloride]",0.4,400,
"CC(=N)NCC(F)=CCC[C@H](N)C(=O)O (mixture of isomers) [Example B, (2S,5E/Z)-2-amino-6-fluoro-7-[(1-iminoethyl)amino]-5-heptenoic acid, dihydrochloride]",,200,
"N=C1CCCC[C@H](CCCC[C@@H](N)C(=O)O)N1 [Example Y, ([…]R,2S)-[…]-aminohexahydro-7-imino-1H-azepine-2-hexanoic acid, trihydrate hydrochloride]",,,IC50 [2]: < 10000 nM
"CC(=NO)NC/C(F)=C\CC[C@H](N)C(=O)O [Example G, (2S,5E)-2-amino-6-fluoro-7-[(1-hydroximinoethyl)amino]-5-heptenoic acid]",< 0.1,,melting point: 198 to 200 °C
"CC(=N)NC/C(F)=C/CC[C@H](N)C(=O)O [Example D, (2S,5Z)-2-amino-6-fluoro-7-[(1-iminoethyl)amino]-5-heptenoic acid, trihydrochloride, dihydrate]",> 10,2500,
N=C(N)NN [aminoguanidine],,,neuroprotection / loss of retinal ganglion cells (retinal ganglion cells): blocks loss of retinal ganglion cells; neuroprotection / loss of retinal ganglion cells (retinal ganglion cells; listed as Aminoguanidine): provide neuroprotection to retinal ganglion cells
"COC[C@](N)(CSCCNC(C)=N)C(=O)O [Example J, 2-[[[2-[(1-Iminoethyl)amino]ethyl]thio]methyl]-O-methyl-D-serine, dihydrochloride]",,,IC50 [2]: 8200 nM
"N=C1CCCC[C@@H](CCCC[C@H](N)C(=O)O)N1 [Example W, ([…]S,2R)-[…]-aminohexahydro-7-imino-1H-azepine-2-hexanoic acid, trihydrate hydrochloride]",> 10,> 30000,
